Results as given in publication PMC6563099, “Novel Thienopyrimidine Derivative, RP-010, Induces β-Catenin Fragmentation and Is Efficacious against Prostate Cancer Cells” (Cancers, 2019).

Tests used:
[1] = system: DU145; experiment: Time-dependent cell confluence (live cell imaging), DU145; type: cell-based
Protocol: The cytotoxicity of RP-010, over time, was determined using DU145 cells. The cells were seeded and incubated as previously described. The DU145 cells were incubated with vehicle or RP-010 for 72 h. The pictures were taken over time, at a snapshot interval of 15 min, from the same spot of the flask using the CytoSMART™ Lux 10X system (LONZA biosciences Walkersville, MD, USA) for live cell imaging.

[2] = system: Wnt/β-catenin signaling pathway proteins in DU145 cells; experiment: Western analysis of Wnt/β-catenin signaling pathway proteins, DU145; type: cell-based
Protocol: DU145 cells were incubated with RP-010 ((1 or 2 µM) for 24 h. Thereafter, the cells were subjected to a two-step lysis process to extract and separate the cytosolic and the nuclear proteins, as previously described. Next, protein separation for both cytosolic and nuclear proteins was achieved by electrophoresing the samples through acrylamide SDS-PAGE gels, followed by transfer to a PVDF membrane. The PVDF membrane was then incubated overnight with the following primary antibodies: rabbit α-tubulin, 1:4000 dilution, rabbit BAX (1:1000), rabbit BAK (1:1000), rabbit cytochrome c (1:1000), rabbit PARP (1:5000), rabbit β-Catenin (1:4000), rabbit DVL3 (1:4000), rabbit LRP-6 (1:1000), rabbit P-LRP-6 (1:1000), rabbit c-Myc (1: 4000), rabbit cyclin B1 (1:2000), rabbit Wnt 5a (1:1000), rabbit naked 1 and naked 2 (1:1000), mouse E-cadherin (1:4000), mouse N-cadherin (1:4000), mouse β-actin (1:5000) and rabbit histone (1:3000). Finally, protein expression levels were determined as described previously. In the Figure 3, Figure 5 and Figure S8, the protein blots above β-actin were cytosolic lysates, while all the proteins below β-actin and above histones (loading controls) were nuclear lysates.

[3] = system: PC-3; experiment: Colony formation assay, PC-3; type: cell-based; details: 1 or 2 µM, vs vehicle, p < 0.01
Protocol: This assay was performed as previously described. The DU145 and PC-3 cells were incubated with RP-010 (1 or 2 µM) for 24 h. […], the medium was discarded and cells were trypsinized with 0.25% trypsin, 2.21-mM EDTA, and then harvested, counted, and reseeded in 6-well plates at a low density (500 cell/well). The cells were allowed to form colonies for 10–14 days at 37 °C, with the medium being changed every other day. Subsequently, methanol was used to fix the colonies formed in each plate, followed by staining the colonies with 0.1% crystal violet dye for 30 min. Finally, colonies were viewed and counted under an EVOS microscope (Themo Fisher Scientific, Wayne, MI, USA). The colony formation rate equation was applied for each compound: Colony formation rate = the number of colonies/numbers of seeded cells × 100%.

[4] = system: PC-3; experiment: Cell cycle analysis (PI, flow cytometry), PC-3; type: cell-based; details: 0.5, 1 or 2 µM
Protocol: The effect of RP-010 on the cell cycle phases and function was determined using cell cycle analysis with PI staining, followed by flow cytometry. The cells were incubated with either vehicle or RP-010 (0.5, 1 or 2 µM) for 24 h. After incubation overnight, the cells were collected, washed and resuspended as an ice-cold PBS suspension. The DNA was stained with PI for at least 15 min on ice. A FACS Calibur flow cytometer from BD Biosciences (San Jose, CA, USA) was used to determine the distribution of the cells following incubation with vehicle or RP-010. Finally, the data were viewed and analysed using FlowJo v10.2 software from FlowJo LLC (Ashland, OR, USA).

[5] = system: HCT116; set-up: method as in PMID 28759878; details: colon cancer cell line; cited from earlier work
[6] = system: PC-3; experiment: Oxidative stress (H2DCFDA fluorescence), PC-3; type: cell-based; details: 1, 2 and 4 µM, 24 h, vs vehicle
Protocol: (§1) The compound 2′,7′-dichlorofluorescin (H2DCFDA) was used to detect changes in the oxidative stress status, as previously described in PC-3 and DU145. […] The cells were then washed 3 times with 1× PBS for 5 min each. The level of reactive oxygen species was then measured, based on the fluorescence level of oxidized H2DCFDA dye (excitation at 485 nm and emission at 535 nm), using an EVOS digital fluorescent microscope at 40×.

[7] = system: DU145; experiment: Oxidative stress (H2DCFDA fluorescence), DU145; type: cell-based; details: 0.5, 1, 2 or 4 µM, 24 h, vs vehicle
Protocol: as §1

[8] = system: DU145; experiment: Transwell migration assay, DU145; type: cell-based; details: 0.5, 1 or 2 μM, 24 h
Protocol: The assay was done as previously described. The effect of RP-010, (0.5, 1 or 2 µM) on the migration of PC cells was tested using 24 trans-well inserts with an […] pore size. The addition of the insert to the well forms two chambers (upper and lower), where the upper chamber was used to grow the cells on the porous membrane. The lower chamber was filled with 600-μL cell-free DMEM medium. 200-μL of the cell suspension was added to each insert, and cells allowed to attach for 1 h. The test compound was added in different concentrations and incubated with the cells for 24 h. […] Finally, the remaining migrated cells were fixed by methanol, and stained with 0.1% crystal violet dye and counted with an EVOS microscope. The number of migrated cells was counted for the cultures incubated with vehicle or RP-010.

[9] = system: PC-3; experiment: Wound healing assay, PC-3; type: cell-based; details: 0.5, 1, 2 or 4 µM, 12-24 h, vs vehicle
Protocol: This assay was conducted using DU145 and PC-3 cells as previously described. Upon confluence, 200 μL sterile tips were used to create a wound by gently scratching the complete cell monolayer. Sterile PBS was used to wash the cells several times to remove any floating cells. Different concentrations of the test compound were prepared in the culture media and added immediately after wound formation. The closure of the wound was observed by taking pictures at different time points by the EVOS microscope (Thermo Fisher Scientific, Wayne, MI, USA). Finally, the area of the wounds, at different time points, was calculated using Image J software (NIH, Bethesda, MD, USA).

[10] = DU145, 1 or 2 μM, 24 h, p < 0.01

COc1ccc(-c2nc3sc4c(c3c(=O)[nH]2)CCCC4)cc1 [RP10]
Cell growth over time (confluence) ([1]; 0.5 µM, after 24 h of incubation, p < 0.05): significantly decreased
Cell growth over time (confluence) ([1]; 1 µM, after 12 h of incubation, p < 0.01): significantly decreased
Expression levels of N-cadherin ([2]; 1 and 2 µM): did not significantly alter
Accumulation of lower molecular weight β-catenin fragments (P3, P4) ([2]; DU145, 1 or 2 μM, 24 h): increased the accumulation
Fragmentation of full-length β-catenin (p92) into lower molecular weight fragments (≈70 kDa) ([2]; DU145, 1 or 2 μM, 24 h): significant fragmentation
Levels of E-cadherin ([2]; DU145, 1 or 2 μM, 24 h): did not significantly alter
Levels of Wnt 5a ([2]; DU145, 1 or 2 μM, 24 h): no significant change
Levels of nuclear c-Myc ([2]; DU145, 1 or 2 μM, 24 h): significantly decreased
Levels of total active β-catenin ([2]; DU145, 1 or 2 μM, 24 h): significant decrease
Nuclear levels of Naked 1 ([2]; DU145, 1 or 2 μM, 24 h): significantly increased
Nuclear levels of Naked 2 ([2]; DU145, 1 or 2 μM, 24 h): significantly increased
Nuclear levels of cyclin B1 ([2]; DU145, 1 or 2 μM, 24 h): not significantly altered
Levels of cytosolic Naked 1 ([2]; DU145, 1 or 2 μM, 24 h, p < 0.001): significantly decreased
Cytosolic levels of cyclin B1 [2, 10]: decreased significantly
Levels of DVL3 [2, 10]: significantly decreased
Levels of cytosolic Naked 2 [2, 10]: significantly decreased
Levels of phosphorylated LRP-6 (P-LRP-6) [2, 10]: significantly decreased
Levels of LRP-6 ([2]; DU145, 1 or 2 μM, 24 h, p < 0.05): significantly decreased
Colony formation rate [3]: significantly decreased
Percentage of cells in G1 [4]: significant decrease
Percentage of cells in the G2 phase [4]: significant increase
IC50 [5]: 0.6 ± 0.3 µM
Reactive oxygen species (ROS) level [6]: elevated ROS levels
Reactive oxygen species (ROS) level [7]: significantly higher levels
Number of cells migrating across the membrane (transwell) [8]: significantly decreased
Wound healing (cell migration) [9]: significantly decreasing wound healing
